Here are results for three compounds from patent US20060035905A1, “Formulations of phosphodiesterase 5 inhibitors and methods of use” (Becton, Dickinson and Company, priority 2004, published 2006).

Like-named read-outs stand apart in the source and are kept apart here. Marks after values point to notes of the source that are not given here.

One series in a line: in vivo. More on the design: species or system Sprague-Dawley rats. The settings on record: rat. On the procedure:
Animal surgery: The rat's femoral vein was cannulated for blood sampling for every group. For IN rats, an incision was made in the trachea and a polypropylene tube was inserted as an airway. To seal the pass way between the nasal cavity and trachea, a sealed tube was inserted through the same incision into the posterior of nasal cavity. Finally the nasopalatine was closed with an adhesive.
Blood samples were drawn from the femoral vein at predetermined time points.
20 μl of 12% perchloric acid was added to 80 μl rat serum followed by vortexing. Then 100 μl of water was added to achieve the sample volume required by HPLC assay.

For series [1] the following is noted: for Clearance: dose normalized; for Bioavailability: versus IV mesylate.
Method: Intradermal injections were conducted at the flank region of Yucatan pigs using two different length of 31 gauge microneedles, 1.5 mm and 2.0 mm, noted as ID1.5 and ED 2.0, respectively. SC injections were conducted using regular half inch 30 gauge needles also at the flank region. […] After drug administration, blood samples were taken from the jugular vein port periodically and sera were collected after centrifugation and stored at −70° C. until analysis.
Pig serum samples (including pooled untreated serum) were briefly vortex-mixed and a 100 μl volume was transferred into a borosilicate glass screw-top conical test tube. 10 μl of the appropriate spiking solution was added to calibration and quality control (QC) samples. 10 μl of 50:50 methanol-water was added to study samples. […] The subsequent liquid/liquid extraction was performed by adding 2 ml of methyl t-butyl ether (MTBE) to each tube and vortex-mixing for 1 min, followed centrifugation at 3000 rpm for ˜10 min. Then the aqueous layer was frozen in dry-ice acetone bath and MTBE layer was decanted to glass tubes and dried in the TurboVap at 35° C. The samples were reconstituted in 200 μl acetonitrile containing 1% acetic acid and 0.025% TFA for LC-MS-MS analysis.
The standards and QCs for LC-MS-MS were made from a stock solution in MeOH-water 1:1, v/v. Calibration standard at concentrations of 10, 20, 500, 200, 500, 1000, 2500 and 5000 ng/ml. QCs were prepared at levels of 20, 2000, 4000 ng/ml. All standard and QCs were aliquoted and stored at 2-8° C. The LC-MS-MS system consisted of a Shimazu HPLC system (Kyoto, Japan) and a Sciex API 3000 tandem mass spectrometer (Ontario, Canada) with electrospray ionization in the positive ion mode [(+)-ESI]. The analytical column, Betasil silica of 5 μm, 50×3 mm I.D., was purchased from Keystone Scientific (Bellefonte, Pa., USA) and operated at 30° C. The mobile phase was a mixture of acetonitrile/water at 15/85 v/v and contains 1% acetic acid and 0.025% TFA. The injection volume was 30 μl. The run time was 3 min and the flow was 0.3 ml/min. The mass spectrometer was operated under multiple reaction monitoring mode with the ionspray needle maintained at 1.5 kV. The turbo gas temperature was 400° C. Nebulizing gas, curtain gas, and collision gas flows were at instrument settings of 8, 8, and 12, respectively. The declustering potential (DP), focusing potential (DP) and collision energy (CE) were at 65, 240, and 54 V, respectively.
Setting [2] is: IV, up to last sampling time point.

In the case of `CCCc1nn(C)c2c(=O)[nH]c(-c3cc(S(=O)(=O)N4CCN(C)CC4)ccc3OCC)nc12` [sildenafil], in “in vivo” (Sprague-Dawley), the peak concentration (Cmax) is 547 ng/mL, the concentration at 5 min was 428 ng/mL, the “time of maximum systemic concentration” value is recorded as “around 15 min” and the “time of peak serum concentration” value is listed as “approximately 10 minutes”. The compound also showed a Cmax in “in vivo” (Sprague-Dawley, Cmax) of approximately 1000 ng/mL. For the same compound, in “in vivo” (sc), the “maximum serum drug level (in words)” value is reported as “comparable maximum serum drug level to the ID group” and the “time of Cmax” value lay in the range of 30 to 60 min.

Take sildenafil acetate: in series [1] (ID 1.5 mm), the mean residence time (MRT) was found to be 1.85 h and the “Terminal t½” value was 2.19 h.

As for sildenafil mesylate, the MRT in series [1] (ID 1.5 mm) stood at 1.90 h; in series [1] (ID 2.0 mm), 2.27 h; in series [1] (setting [2]) it was 1.90 h; in series [1] (SC) it was 2.43 h. In addition, the “Terminal t½” value was 2.27 h in series [1] (ID 1.5 mm), 3.83 h in series [1] (ID 2.0 mm), 3.01 h in series [1] (IV) and 2.84 h in series [1] (SC). Moreover, the time of peak concentration (Tmax) in series [1] (ID 1.5 mm) was 0.083^c hr; in series [1] (ID 2.0 mm) it was 0.18 h; in series [1] (IV, ~5 mg sildenafil, average), 0.0^b hr; in series [1] (SC), 0.12 h. The Clearance is 42.2835 mL/min/kg in series [1] (ID 1.5 mm), 35.7202 mL/min/kg in series [1] (ID 2.0 mm), 23.558 mL/min/kg in series [1] (IV) and 45.6718 mL/min/kg in series [1] (SC). Besides, the AUC in series [1] (ID 1.5 mm, up to last sampling time point) was determined as 116.21 ng·h/mL; in series [1] (ID 2.0 mm, up to last sampling time point) it was 133.56 ng·h/mL; in series [1] (setting [2]), 229.41 ng·h/mL; in series [1] (SC, up to last sampling time point) it was 120.13 ng·h/mL. For the same compound, the Bioavailability in series [1] (ID 1.5 mm) is reported as 56.95^c %; in series [1] (ID 1.5 mm, listed as mesylate salt), approximately 55%; in series [1] (ID 2.0 mm), 66.79^c %; in series [1] (SC), 54.77^c %; in series [1] (SC, listed as mesylate salt), approximately 55%. Further, the maximum concentration (Cmax) stood at 93.13 ng/mL in series [1] (ID 1.5 mm, ~5 mg sildenafil, average); 70.98 ng/mL in series [1] (ID 2.0 mm, ~5 mg sildenafil, average); 307.35 ng/mL in series [1] (IV, ~5 mg sildenafil, average); 111.28 ng/mL in series [1] (SC, ~5 mg sildenafil, average).

The Cmax is the highest concentration seen after dosing. Broadly, the MRT is a mean duration of stay, worked out from the concentration-time curve. By Tmax is commonly meant the time at which the peak concentration occurs. The term AUC denotes concentration integrated over time. The low end stands for low exposure, the high end for high exposure.
